{"source": "patent US6552014B2", "about": "“Methods of inhibiting platelet activation with selective serotonin reuptake inhibitors” (HeartDrug Research, L.L.C., priority 1999, dated 2003)", "key": {"[1]": {"tested_on": "Vitronectin receptor", "experiment": "Flow cytometry of platelet antigen expression, platelet rich plasma", "assay_type": "cell-based, human", "conditions": "for Vitronectin (mean) log fluorescence intensity / Vitronectin (peak) log fluorescence intensity: PRP", "from_the_text": "For ex vivo assessment of the SSRIs effect on a PAM, a level of a PAM can be assessed by flow cytometry by first obtaining a sample that comprises platelets and then contacting the sample with a platelet activation agonist, such as phorbol myristate acetate (PMA), ADP (adenosine diphosphate), thrombin, collagen, and/or TRAP (thrombin receptor activating peptide), under conditions suitable for activation of platelets in the sample. The sample is in contact with the agonist preferably for a period of time effective to maximally activate the platelets. […] Then the formation of the complex in the sample is determined (detected or measured). […] The blood-ACD mixture was centrifuged at 1000 r.p.m. for 10 minutes at room temperature. […] The PRP was then centrifuged at 3000 r.p.m. for 10 minutes. […] All cells were then divided into ten plastic capped tubes. Nine portions of washed platelets were incubated with 5 μfluorescein isothiocyanate (FITC)-conjugated antibodies in the dark at +4 °C for 30 minutes, and one part remained unstained and served as a negative control. […] The instrument was calibrated daily with fluorescence beads (CaliBRITE; Becton Dickinson) and measured FITC-conjugated fluorescence intensity. All parameters were obtained using four decade logarithmic amplification. The data was collected and stored in list mode, and then analyzed using CELLQuest® (version 1.2.2) software. Procedures are described in detail in (Gurbel, P. […] Serebruany, V. […] The levels of various PAMs were assess from samples of human volunteers."}, "[2]": {"tested_on": "platelets", "experiment": "PFA-100 closure time, collagen/ADP cartridge", "assay_type": "cell-based, human", "conditions": "whole blood from a healthy volunteer, increasing concentrations", "from_the_text": "A Platelet-Function Analyzer referred to as PFA-100® (Dade Behring, Deerfield Ill.) was used. The PFA-100® is a high shear-inducing analyzer that simulates primary hemostasis after injury to a small vessel under flow conditions. The PFA-100® system measures the time required for a patient's blood sample to form a“platelet plug” in the first phase of blood clot formation. That time interval, which normally ranges from one to three minutes, is called “closure time.” The device provides a constant negative pressure that aspirates whole blood which comes into contact with the collagen coated membrane and then passes through the aperture. The time required to obtain occlusion of the aperture is digitally recorded.\nThe PFA-100® system permits detection of platelet dysfunction during primary hemostasis, the first phase of hemostasis or coagulation. The system consists of a microprocessor-controlled instrument and disposable test cartridges that measure how well a patient's platelets adhere and aggregate to form a platelet plug.\nAn in vitro system for the detection of platelet dysfunction, PFA-100™, has been developed. It provides a quantitative measure of platelet function in anticoagulated whole blood. The system comprises a microprocessor-controlled instrument and a disposable test cartridge containing a biologically active membrane. […]"}, "[3]": {"conditions": "post-angioplasty patient on aspirin, sertraline 44.7 ng/ml"}, "[4]": {"conditions": "post-angioplasty patient on aspirin, sertraline 85.3 ng/ml"}, "[5]": {"conditions": "healthy volunteers, desmethylsertraline 31.1 ng/ml"}, "[6]": {"conditions": "healthy volunteers, desmethylsertraline 64.2 ng/ml"}, "[7]": {"conditions": "healthy volunteers, desmethylsertraline 143 ng/ml"}, "[8]": {"conditions": "post-angioplasty patient on aspirin, desmethylsertraline 31.1 ng/ml"}, "[9]": {"conditions": "post-angioplasty patient on aspirin, desmethylsertraline 64.2 ng/ml"}, "[10]": {"conditions": "post-angioplasty patient on aspirin, desmethylsertraline 143 ng/ml"}}}
{"smiles": "CN[C@H]1CC[C@@H](c2ccc(Cl)c(Cl)c2)c2ccccc21", "note": "[sertraline]", "values": [{"measurement": "Vitronectin (mean) log fluorescence intensity", "setting": "[1]; healthy volunteers, sertraline 18.1 ng/ml", "result": 810}, {"measurement": "Vitronectin (mean) log fluorescence intensity", "setting": "[1]; healthy volunteers, sertraline 44.7 ng/ml", "result": 510}, {"measurement": "Vitronectin (mean) log fluorescence intensity", "setting": "[1]; healthy volunteers, sertraline 85.3 ng/ml", "result": 667}, {"measurement": "Vitronectin (mean) log fluorescence intensity", "setting": "[1]; post-angioplasty patient on aspirin, sertraline 18.1 ng/ml", "result": 405}, {"measurement": "Vitronectin (mean) log fluorescence intensity", "setting": "[1]; [3]", "result": 344}, {"measurement": "Vitronectin (peak) log fluorescence intensity", "setting": "[1]; [3]", "result": 393}, {"measurement": "Vitronectin (mean) log fluorescence intensity", "setting": "[1]; [4]", "result": 529}, {"measurement": "Vitronectin (peak) log fluorescence intensity", "setting": "[1]; [4]", "result": 585}, {"measurement": "surface expression of vitronectin receptor, in words", "setting": "[1]; plasma concentration 85.3 ng/ml, equivalent to 200 mg/daily", "result": "diminished surface expression"}, {"measurement": "closure time (time for a platelet plug to form) (FIG. 11), in words", "setting": "[2]", "result": "decrease in the time"}]}
{"smiles": "N[C@H]1CC[C@@H](c2ccc(Cl)c(Cl)c2)c2ccccc21", "note": "[Desmethyl sertraline, N-desmethylsertraline]", "values": [{"measurement": "Vitronectin (mean) log fluorescence intensity", "setting": "[1]; [5]", "result": 677}, {"measurement": "Vitronectin (peak) log fluorescence intensity", "setting": "[1]; [5]", "result": 620}, {"measurement": "Vitronectin (mean) log fluorescence intensity", "setting": "[1]; [6]", "result": 623}, {"measurement": "Vitronectin (peak) log fluorescence intensity", "setting": "[1]; [6]", "result": 508}, {"measurement": "Vitronectin (mean) log fluorescence intensity", "setting": "[1]; [7]", "result": 732}, {"measurement": "Vitronectin (peak) log fluorescence intensity", "setting": "[1]; [7]", "result": 670}, {"measurement": "Vitronectin (mean) log fluorescence intensity", "setting": "[1]; [8]", "result": 504}, {"measurement": "Vitronectin (peak) log fluorescence intensity", "setting": "[1]; [8]", "result": 560}, {"measurement": "Vitronectin (mean) log fluorescence intensity", "setting": "[1]; [9]", "result": 380}, {"measurement": "Vitronectin (peak) log fluorescence intensity", "setting": "[1]; [9]", "result": 425}, {"measurement": "Vitronectin (mean) log fluorescence intensity", "setting": "[1]; [10]", "result": 482}, {"measurement": "Vitronectin (peak) log fluorescence intensity", "setting": "[1]; [10]", "result": 544}, {"measurement": "closure time (time for a platelet plug to form) (FIG. 11), in words", "setting": "[2]", "result": "decrease in the time"}]}
